The structures appear in SMILES notation.

Holding throughout (assay type): cell-based
Experiment [1] has as its target DOR (Homo sapiens, UniProt P41143). Briefly: GloSensor assay at DOR. The note with it: given as Log IC50 (negative values).
Experiment [2] concerns the target human KOR (Homo sapiens, UniProt P41145). Briefly: GloSensor assay, Gi-mediated cAMP inhibition in HEK-293T cells transfected with human KOR. Conditions: given as Log IC50 (negative values); agonist activity, inhibition of FSK-stimulated cAMP; read-out: GloSensor Assay (Log IC50) KOR (converted).
Experiment [3] addresses MOR (Homo sapiens, UniProt P35372). The experiment in a line: GloSensor assay at MOR. The note with it: given as Log IC50 (negative values).

MOR, sequence (P35372 whole entry): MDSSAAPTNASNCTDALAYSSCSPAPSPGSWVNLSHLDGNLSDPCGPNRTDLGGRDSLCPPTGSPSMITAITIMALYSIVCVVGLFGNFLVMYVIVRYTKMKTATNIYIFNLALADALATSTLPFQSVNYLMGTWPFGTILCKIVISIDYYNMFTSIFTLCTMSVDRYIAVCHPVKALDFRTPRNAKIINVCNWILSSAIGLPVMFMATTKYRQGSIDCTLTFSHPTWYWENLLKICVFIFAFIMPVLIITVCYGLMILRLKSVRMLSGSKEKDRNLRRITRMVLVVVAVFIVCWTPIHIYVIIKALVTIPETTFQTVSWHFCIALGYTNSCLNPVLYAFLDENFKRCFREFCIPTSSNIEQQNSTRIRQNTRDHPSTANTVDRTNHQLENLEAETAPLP
human KOR, sequence (P41145 whole entry): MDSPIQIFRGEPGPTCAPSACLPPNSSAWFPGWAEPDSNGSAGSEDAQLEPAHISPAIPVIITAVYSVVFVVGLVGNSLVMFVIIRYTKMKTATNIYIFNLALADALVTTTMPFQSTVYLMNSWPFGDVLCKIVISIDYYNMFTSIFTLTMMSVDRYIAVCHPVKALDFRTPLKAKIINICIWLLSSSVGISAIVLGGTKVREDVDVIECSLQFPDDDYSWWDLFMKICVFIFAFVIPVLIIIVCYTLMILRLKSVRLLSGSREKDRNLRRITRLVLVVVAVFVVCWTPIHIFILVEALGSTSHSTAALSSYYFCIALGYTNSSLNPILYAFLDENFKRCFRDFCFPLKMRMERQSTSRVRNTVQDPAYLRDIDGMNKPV
DOR, sequence (P41143 whole entry): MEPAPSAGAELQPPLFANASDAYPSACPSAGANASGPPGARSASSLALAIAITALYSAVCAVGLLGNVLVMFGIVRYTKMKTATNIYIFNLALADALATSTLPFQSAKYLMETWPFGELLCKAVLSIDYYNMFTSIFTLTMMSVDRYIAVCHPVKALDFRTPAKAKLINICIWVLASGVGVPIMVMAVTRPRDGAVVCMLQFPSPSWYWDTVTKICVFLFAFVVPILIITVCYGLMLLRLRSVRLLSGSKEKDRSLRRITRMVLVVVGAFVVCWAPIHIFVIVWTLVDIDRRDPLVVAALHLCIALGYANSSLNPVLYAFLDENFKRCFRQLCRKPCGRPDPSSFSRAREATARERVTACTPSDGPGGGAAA

The IC50 is the concentration at which inhibition is half-maximal. Consider `Cn1c2ccccc2c2cc[n+]3cn(-c4ccc(F)cc4)c(-c4ccc(Br)cc4)c3c21` [8dbd, 1-(4-Bromophenyl)-2-(4-fluorophenyl)-11-methyl-2,11-dihydroimidazo[1′,5′:1,2]pyrido[3,4-b]indol-4-iumchloride], for which the IC50 in experiment [1], in experiment [2] and in experiment [3] was greater than 10 µM each time.

For the compound `COC(=O)c1cc2c3ccccc3[nH]c2c2c(-c3ccc(Br)cc3)n(-c3ccc(F)cc3)c[n+]12` [8bbd, 1-(4-Bromophenyl)-2-(4-fluorophenyl)-5-(methoxycarbonyl)-2,11-dihydroimidazo[1′,5′:1,2]pyrido[3,4-b]indol-4-iumchloride], the IC50 in experiment [1], in experiment [2] and in experiment [3] was greater than 10 µM each time.

`FC(F)(F)c1ccc(Cn2c[n+]3ccc4c5ccccc5[nH]c4c3c2-c2ccc(Br)cc2)cc1` [9aad, 1-(4-Bromophenyl)-2-(4-(trifluoromethyl)benzyl)-2,11-dihydroimidazo[1′,5′:1,2]pyrido[3,4-b]indol-4-ium chloride]: the concentration for half-maximal inhibition (IC50) in experiment [1], in experiment [2] and in experiment [3] was greater than 10 µM in each case.

Take `Clc1ccc(-c2c3c4[nH]c5ccccc5c4cc[n+]3cn2Cc2ccsc2)cc1` [9acj, 1-(4-Chlorophenyl)-2-(thiophen-3-ylmethyl)-2,11-dihydroimidazo[1′,5′:1,2]pyrido[3,4-b]indol-4-ium chloride]: the IC50 in experiment [1], in experiment [2] and in experiment [3] was greater than 10 µM in each case.

In the case of `COC(=O)c1cc2c3ccccc3[nH]c2c2c(-c3ccc(C)cc3)n(-c3ccc(F)cc3)c[n+]12` [8bkd, 2-(4-Fluorophenyl)-5-(methoxycarbonyl)-1-(p-tolyl)-2,11-dihydroimidazo[1′,5′:1,2]pyrido[3,4-b]indol-4-iumchloride], the half-maximal inhibitory concentration (IC50) in experiment [1], in experiment [2] and in experiment [3] was greater than 10 µM throughout.

For the compound `FC(F)(F)Oc1ccc(-n2c[n+]3ccc4c5ccccc5[nH]c4c3c2-c2ccc(Br)cc2)cc1` [8abh], the IC50 in experiment [1], in experiment [2] and in experiment [3] was greater than 10 µM each time.

Consider `Fc1cccc(-c2c3c4[nH]c5ccccc5c4cc[n+]3cn2-c2ccc(Cl)cc2)c1` [8aic, 2-(4-Chlorophenyl)-1-(3-fluorophenyl)-2,11-dihydrolmidazo[1′,5′:1,2]pyrido[3,4-b]indol-4-ium chloride], for which the results for the half-maximal inhibitory concentration (IC50) in experiment [1], in experiment [2] and in experiment [3] were greater than 10 µM, 0.0912 µM and greater than 10 µM, respectively.

For `Cc1ccc(-c2c3c4[nH]c5ccccc5c4c4ccccc4[n+]3cn2-c2ccc(F)cc2)cc1` [12bc, 2-(4-Fluorophenyl)-1-(p-tolyl)-2,13-dihydrolmidazo[1,5-a]indolo[2,3-c]quinolin-4-ium chloride], the IC50 in experiment [1], in experiment [2] and in experiment [3] was greater than 10 µM each time.

Regarding `COc1cc(-c2c3c4[nH]c5ccccc5c4cc[n+]3cn2-c2ccc(F)cc2)cc(OC)c1OC` [8apd, 2-(4-Fluorophenyl)-1-(3,4,5-trimethoxyphenyl)-2,11-dihydroimidazo[1′,5′:1,2]pyrido[3,4-b]indol-4-ium chloride], the 50% inhibitory concentration (IC50) in experiment [1], in experiment [2] and in experiment [3] was greater than 10 µM throughout.

Consider `Brc1ccc(-c2c3c4[nH]c5ccccc5c4cc[n+]3cn2Cc2ccccc2)cc1` [9aaa, 2-Benzyl-1-(4-bromophenyl)-2,11-dihydroimidazo[1′,5′:1,2]pyrido[3,4-b]indol-4-ium chloride], for which the IC50 in experiment [1], in experiment [2] and in experiment [3] was greater than 10 µM in each case.

Take `Clc1cccc(-n2c[n+]3ccc4c5ccccc5[nH]c4c3c2-c2ccc(Br)cc2)c1` [8abf, 1-(4-Bromophenyl)-2-(3-chlorophenyl)-2,11-dihydroimidazo[1′,5′:1,2]pyrido[3,4-b]indol-4-ium chloride]: the IC50 in experiment [1], in experiment [2] and in experiment [3] was greater than 10 µM throughout.

`Clc1ccc(-c2c3c4[nH]c5ccccc5c4cc[n+]3cn2-c2cccc(Br)c2)cc1` [8ade, 2-(3-Bromophenyl)-1-(4-chlorophenyl)-2,11-dihydroimidazo[1′,5′:1,2]pyrido[3,4-b]indol-4-ium chloride]: the IC50 in experiment [1], in experiment [2] and in experiment [3] was greater than 10 µM throughout.

As to `Clc1ccc(-c2c3c4[nH]c5ccccc5c4cc[n+]3cn2-c2cccc(Cl)c2)cc1` [8adf, 2-(3-Chlorophenyl)-1-(4-chlorophenyl)-2,11-dihydroimidazo[1′,5′:1,2]pyrido[3,4-b]indol-4-ium chloride], the IC50 in experiment [1], in experiment [2] and in experiment [3] was greater than 10 µM throughout.

Turning to `Clc1cccc(-n2c[n+]3ccc4c5ccccc5[nH]c4c3c2-c2ccccc2Br)c1` [8acf, 1-(2-Bromophenyl)-2-(3-chlorophenyl)-2,11-dihydroimidazo[1′,5′:1,2]pyrido[3,4-b]indol-4-ium chloride], the IC50 is greater than 10 µM in experiment [1], 0.0631 µM in experiment [2] and greater than 10 µM in experiment [3].

With `Fc1ccc(-n2c[n+]3ccc4c5ccccc5[nH]c4c3c2-c2cccs2)cc1` [8and, 2-(4-Fluorophenyl)-1-(thiophen-2-yl)-2,11-dihydroimidazo[1′,5′:1,2]pyrido[3,4-b]indol-4-ium chloride], the figures for the IC50 in experiment [1], in experiment [2] and in experiment [3] were greater than 10 µM, 0.209 µM and greater than 10 µM, respectively.

As to `Clc1ccccc1-n1c[n+]2ccc3c4ccccc4[nH]c3c2c1-c1ccc(Br)cc1` [8abj, 1-(4-Bromophenyl)-2-(2-chlorophenyl)-2,11-dihydroimidazo[1′,5′:1,2]pyrido[3,4-b]indol-4-ium], the IC50 is greater than 10 µM in experiment [1], 0.251 µM in experiment [2] and 0.251 µM in experiment [3].

In the case of `FC(F)(F)Oc1ccc(Cn2c[n+]3ccc4c5ccccc5[nH]c4c3c2-c2ccc(Cl)cc2)cc1` [9abh, 1-(4-Chlorophenyl)-2-(4-(trifluoromethoxy)benzyl)-2,11-dihydroimidazo[1′,5′:1,2]pyrido[3,4-b]indol-4-ium chloride], the IC50 in experiment [1], in experiment [2] and in experiment [3] was greater than 10 µM throughout.

`Clc1ccc(-n2c[n+]3ccc4c5ccccc5[nH]c4c3c2-c2ccccc2)cc1` [8aac, 2-(4-Chlorophenyl)-1-phenyl-2,11-dihydroimidazo[1′,5′:1,2]pyrido[3,4-b]indol-4-ium chloride]: the IC50 in experiment [1] was greater than 10 µM; in experiment [2] it was 0.126 µM; in experiment [3], greater than 10 µM.

`Cn1c2ccccc2c2cc[n+]3cn(-c4ccc(Cl)cc4)c(-c4ccc(Cl)cc4)c3c21` [8ddc, 1,2-Bis(4-chlorophenyl)-11-methyl-2,11-dihydroimidazo[1′,5′:1,2]pyrido[3,4-b]indol-4-iumchloride]: the IC50 in experiment [1], in experiment [2] and in experiment [3] was greater than 10 µM throughout.

In the case of `Clc1ccc(-n2c[n+]3c4ccccc4c4c5ccccc5[nH]c4c3c2-c2ccc(Br)cc2)cc1` [12bd, 1-(4-Bromophenyl)-2-(4-chlorophenyl)-2,13-dihydroimidazo[1,5-a]indolo[2,3-c]quinolin-4-ium chloride], the IC50 in experiment [1], in experiment [2] and in experiment [3] was greater than 10 µM each time.

As for `COc1ccc(-n2c[n+]3ccc4c5ccccc5[nH]c4c3c2-c2ccc(Cl)cc2)cc1` [8adg, 1-(4-Chlorophenyl)-2-(4-methoxyphenyl)-2,11-dihydroimidazo[1′,5′:1,2]pyrido[3,4-b]indol-4-ium chloride], the IC50 was greater than 10 µM in experiment [1], 0.794 µM in experiment [2] and greater than 10 µM in experiment [3].

As for `Brc1ccc(-n2c[n+]3ccc4c5ccccc5[nH]c4c3c2-c2ccccc2)cc1` [8aab, 2-(4-Bromophenyl)-1-phenyl-2,11-dihydroimidazo[1′,5′:1,2]pyrido[3,4-b]indol-4-ium chloride], the IC50 is greater than 10 µM in experiment [1], 0.0661 µM in experiment [2] and greater than 10 µM in experiment [3].

For `Fc1ccc(-n2c[n+]3ccc4c5ccccc5[nH]c4c3c2-c2cccc(Cl)c2)cc1` [8afd, 1-(3-Chlorophenyl)-2-(4-fluorophenyl)-2,11-dihydroimidazo[1′,5′:1,2]pyrido[3,4-b]indol-4-ium chloride], the IC50 is greater than 10 µM in experiment [1], 1.82 µM in experiment [2] and greater than 10 µM in experiment [3].

With `COC(=O)c1cc2c3ccccc3[nH]c2c2c(C)n(-c3ccc(F)cc3)c[n+]12` [8bpd, 2-(4-Fluorophenyl)-5-(methoxycarbonyl)-1-methyl-2,11-dihydroimidazo[1′,5′:1,2]pyrido[3,4-b]indol-4-ium chloride], the figures for the concentration for half-maximal inhibition (IC50) in experiment [1], in experiment [2] and in experiment [3] were greater than 10 µM, 3.16 µM and greater than 10 µM, respectively.

On to `CC(C)(C)c1ccc(Cn2c[n+]3ccc4c5ccccc5[nH]c4c3c2-c2ccc(Br)cc2)cc1` [9aac, 1-(4-Bromophenyl)-2-(4-(tert-butyl)benzyl)-2,11-dihydroimidazo[1′,5′:1,2]pyrido[3,4-b]indol-4-ium chloride], for which the IC50 in experiment [1], in experiment [2] and in experiment [3] was greater than 10 µM throughout.

`COc1ccc(Cn2c[n+]3ccc4c5ccccc5[nH]c4c3c2-c2ccc(Br)cc2)cc1OC` [9aag, 1-(4-Bromophenyl)-2-(3,4-dimethoxybenzyl)-2,11-dihydroimidazo[1′,5′:1,2]pyrido[3,4-b]indol-4-ium chloride]: the IC50 is greater than 10 µM in experiment [1], 0.166 µM in experiment [2] and greater than 10 µM in experiment [3].

Take `Clc1ccc(-c2c3c4[nH]c5ccccc5c4c4ccccc4[n+]3cn2-c2ccc(Br)cc2)cc1` [12db, 2(4-Bromophenyl-1-(4-chlorophenyl)-2,13-dihydroimidazo[1,5-a]indolo[2,3-c]quinolin-4-ium chloride]: the IC50 in experiment [2] was 0.251 µM.

The record behind these values is patent publication US20250368645A1, “BETA CARBOLINE ANALOGUES AS SELECTIVE AND BIASED KAPPA OPIOID RECEPTORS AGONISTS FOR TREATING VARIOUS ASSOCIATED PATHOPHYSIOLOGICAL CONDITIONS” (COUNCIL OF SCIENTIFIC AND INDUSTRIAL RESEARCH, priority 2022, published 2025).
